Measured values taken from patent publication US20230416334A1, “CELL-PENETRATING PEPTIDES” (FUNDACIÓ HOSPITAL UNIVERSITARI VALL D'HEBRON - INSTITUT DE …, priority 2020, published 2023).

Key:
[1] = system: binding of CD300f to plastic-immobilized SM; assay: Peptide inhibition of CD300f-Ig binding to plastic-immobilized sphingomyelin (epitope mapping); set-up: species or system human; details: co-incubation of peptide with CD300f-Ig, FIG. 1
Source text: FIG. 1, related to Example 1, is a bar diagram showing the binding capacity of the indicated peptides to sphingomyelin (SM). They y-axis represents absorbance (%). “C” represents the control; “1” represents Peptide 1 of SEQ ID NO: 12; “2” represents Peptide 2 of SEQ ID NO: 13; “3” represents Peptide 3 of SEQ ID NO: 14; “4” represents Peptide 4 of SEQ ID NO: 15; “5” represents Peptide 5 of SEQ ID NO: 5; “6” represents Peptide 6 of SEQ ID NO: 6; “7” represents Peptide 7 of SEQ ID NO: 7; “8” represents Peptide 8 of SEQ ID NO: 16; and “9” represents Peptide 9 of SEQ ID NO: 17; and “10” represents Peptide 10 of SEQ ID NO: 18; FIG. 2, related to Example 1, is a bar diagram showing the binding capacity of the indicated peptides to sphingomyelin (SM). They y-axis represents absorbance (%). “A” represents the control; “B” represents DMSO; “C” represents Peptide 1; “D” represents Peptide 2; “E” represents Peptide 7; “F” represents Peptide 7 C5S (SEQ ID NO: 8); “G” represents Peptide 7 W3A (SEQ ID NO: 9); and “H” represents Peptide 7 R6G (SEQ ID NO: 10). In an attempt to identify the sites of interaction of CD300f with Sphingomyelin (SM), the inventors performed a peptide-based epitope mapping approach. 24 overlapping, 20mer peptides were designed with a 15-aa overlap between successive peptides covering the Ig and stem extracellular sequences of human CD300f. It was analyzed whether any of those 24 peptides could inhibit binding of CD300f to plastic-immobilized SM. Only three of them, peptides 5 (SEQ ID NO:5), 6 (SEQ ID NO:6) and 7 (SEQ ID NO:7), which contained the sequence […] Moreover, different amino acids of the sequence […] NO: 2) were mutated to try to map the interaction with the phospholipid.

HCT116 cells = assay: Internalization of 5-DTAF labelled polymeric micelles by flow cytometry; format: cell-based; details: 1 mg/ml on 5-DTAF labelled Pluronic F127 micelles, vs non conjugated micelles, FIGS. 4 and 5
Source text: FIG. 4, related to Example 2, is a diagram showing the cell internalization rates of polymeric micelles conjugated to the indicated peptides in HCT116 cells. The y-axis represents fluorescence intensity (F.U.) (Mean±SEM) and the x-axis represents the time (min).
FIG. 5, related to Example 2, is a diagram showing the cell internalization rates of polymeric micelles conjugated to the indicated peptides in HCT116 cells. The y-axis represents fluorescence intensity (F.U.) (Mean±SEM) and the x-axis represents the time (min).
Polymeric micelles (PM) were prepared using the film hydration technique. Briefly, the polymers were individually weighted and dissolved in a mixture of methanol:ethanol (1:1). […]
Flow cytometry was used to verify the internalization of 5-DTAF-fluorescently labeled PM in MCF-7 and HCT116 cell lines. For the quantitative fluorescence-activated cell sorting (FACS), 2×10^4 cells were seeded in complete medium in 96 well plates for 24 hours to allow adhesion. […] The plate was analyzed in a cytometer Fortessa (BD Biosciences, USA). Data was analyzed with FCS Express 4 Flow research edition software (De Novo Software, Los Angeles, USA). […] For each sample, at least 10000 individual cells were collected and the mean fluorescence intensity was evaluated. […]

Question: For CVYRSGWETYLKWWCRGAIW [Peptide 5], which “inhibition of binding of CD300f to sphingomyelin (SM)” value (“inhibition of binding of CD300f” below) [1] is on record?
Answer: Its value is “inhibited binding”.

Question: GWETYLKWWCRGAIWRDCKI [Peptide 6] was tested. Which “inhibition of binding of CD300f” value [1] did it give?
Answer: Its value is “inhibited binding”.

Question: For LKWWCRGAIWRDCKILVKTS [Peptide 7], which “inhibition of binding of CD300f” value [1] is on record?
Answer: Its value is “inhibited binding”.

B1: CD300f: whole CD300f protein, conjugated onto micelles and tested as CPP (protein, UniProt Q8TDQ1 20-290, looked up)
CMRF35-like molecule 1: TQITGPTTVNGLERGSLTVQCVYRSGWETYLKWWCRGAIWRDCKILVKTSGSEQEVKRDRVSIKDNQKNRTFTVTMEDLMKTDADTYWCGIEKTGNDLGVTVQVTIDPAPVTQEETSSSPTLTGHHLDNRHKLLKLSVLLPLIFTILLLLLVAASLLAWRMMKYQQKAAGMSPEQVLQPLEGDLCYADLTLQLAGTSPQKATTKLSSAQVDQVEVEYVTMASLPKEDISYASLTLGAEDQEPTYCNMGHLSSHLPGRGPEEPTEYSTISRP
modifications: conjugated onto micelles
notes: whole CD300f protein, conjugated onto micelles and tested as CPP
Question: With B1 as the molecule, how does the “internalization of peptide- or protein-functionalized micelles” value (HCT116 cells) read?
Answer: The value was “better CPPs than the ones currently available in the market”.
